IC50 data for 6 molecules are collected here from patent publication US11981658B2, “Substituted aminopyridine compounds as EGFR inhibitors” (YUHAN CORPORATION, priority 2021, dated 2024).

Like-named read-outs stand apart in the source and are kept apart here. A value given as a limit tells only on which side of the number the result lay.

One test deals with EGFR Del19/T790M/C797S (Homo sapiens, UniProt P00533, C797S/DEL746-750/T790M). The experiment in a line: Biochemical EGFR kinase inhibition assay (Lance Ultra TR-FRET), triple mutant del19/T790M/C797S. The method, boiled down: (§1)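 Enzyme reactions lasted 1 hour at room temperature with test compounds between 0.003 and 10 μM, followed by 10 mM EDTA quench.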
On the technique in general: In TR-FRET formats the signal depends on donor and acceptor labels being close together.

The next test has as its target EGFR L858R/T790M/C797S (Homo sapiens, UniProt P00533, C797S/L858R/T790M). The test is described as follows: Biochemical EGFR kinase inhibition assay (Lance Ultra TR-FRET), triple mutant L858R/T790M/C797S. Summed up:
as §1

In the next test the target is EGFR Del19/C797S (Homo sapiens, UniProt P00533, C797S/DEL746-750). The experiment in a line: Biochemical EGFR kinase inhibition assay (Lance Ultra TR-FRET), double mutant del19/C797S. The method, boiled down:
as §1

The target in another test is EGFR L858R/C797S (Homo sapiens, UniProt P00533, C797S/L858R). The experiment in a line: Biochemical EGFR kinase inhibition assay (Lance Ultra TR-FRET), double mutant L858R/C797S. Summed up:
as §1

The next test has as its target EGFR wildtype (WT) (Homo sapiens, UniProt P00533). The experiment in a line: Biochemical EGFR kinase inhibition assay (Lance Ultra TR-FRET), wildtype. Summed up: as §1
[1] abbreviates: ATP at Km, read-out: IC50 Del19/T790M/C797S (nM), Km ATP.
Setting [2] is: IC50 Del19/T790M/C797S (nM), 100 μM ATP.
Setting [3] is: ATP at Km, read-out: IC50 L858R/T790M/C797S (nM), Km ATP.
Setting [4] is: IC50 L858R/T790M/C797S (nM), 100 μM ATP.
[5] abbreviates: ATP at Km, read-out: IC50 Del19/C797S (nM), Km ATP.
Setting [6] is: IC50 Del19/C797S (nM), 100 μM ATP.
[7] abbreviates: ATP at Km, read-out: IC50 L858R/C797S (nM), Km ATP.
Setting [8] is: IC50 L858R/C797S (nM), 100 μM ATP.
The mark [9] stands for this setting: ATP at Km, read-out: IC50 WT (nM), Km ATP.

EGFR Del19/C797S, sequence (P00533 with tags, fused parts or gaps DEL746-750/C797S): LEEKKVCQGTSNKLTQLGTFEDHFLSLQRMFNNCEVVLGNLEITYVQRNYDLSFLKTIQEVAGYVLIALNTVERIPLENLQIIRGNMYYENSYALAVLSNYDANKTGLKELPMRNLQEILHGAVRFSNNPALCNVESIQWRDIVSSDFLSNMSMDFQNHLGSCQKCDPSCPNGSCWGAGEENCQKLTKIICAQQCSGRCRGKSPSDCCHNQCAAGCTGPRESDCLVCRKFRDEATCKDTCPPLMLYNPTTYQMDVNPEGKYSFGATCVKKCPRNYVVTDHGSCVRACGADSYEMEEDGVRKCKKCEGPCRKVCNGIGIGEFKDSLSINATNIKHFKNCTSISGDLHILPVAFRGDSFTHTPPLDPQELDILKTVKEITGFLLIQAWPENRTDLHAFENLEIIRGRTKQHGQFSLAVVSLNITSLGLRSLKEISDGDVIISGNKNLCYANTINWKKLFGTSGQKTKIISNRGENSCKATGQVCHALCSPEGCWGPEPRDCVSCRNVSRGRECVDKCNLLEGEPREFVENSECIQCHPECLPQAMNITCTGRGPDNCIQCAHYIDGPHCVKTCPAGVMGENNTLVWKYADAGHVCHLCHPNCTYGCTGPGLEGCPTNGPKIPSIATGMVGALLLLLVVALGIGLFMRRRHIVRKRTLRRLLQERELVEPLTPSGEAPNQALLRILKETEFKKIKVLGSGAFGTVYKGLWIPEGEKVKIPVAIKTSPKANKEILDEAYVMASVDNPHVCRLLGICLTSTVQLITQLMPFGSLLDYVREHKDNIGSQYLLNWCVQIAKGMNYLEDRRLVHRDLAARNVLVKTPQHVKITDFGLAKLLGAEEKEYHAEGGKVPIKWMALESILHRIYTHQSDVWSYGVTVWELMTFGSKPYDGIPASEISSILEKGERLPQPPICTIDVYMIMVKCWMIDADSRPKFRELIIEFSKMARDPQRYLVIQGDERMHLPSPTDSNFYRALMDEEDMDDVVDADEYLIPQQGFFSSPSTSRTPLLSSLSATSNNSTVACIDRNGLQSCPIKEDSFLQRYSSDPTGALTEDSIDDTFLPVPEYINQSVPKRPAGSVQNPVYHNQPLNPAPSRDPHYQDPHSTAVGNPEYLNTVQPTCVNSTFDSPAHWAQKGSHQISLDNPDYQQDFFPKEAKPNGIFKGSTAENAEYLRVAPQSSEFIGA
EGFR L858R/C797S, sequence (P00533 25-1210 C797S/L858R): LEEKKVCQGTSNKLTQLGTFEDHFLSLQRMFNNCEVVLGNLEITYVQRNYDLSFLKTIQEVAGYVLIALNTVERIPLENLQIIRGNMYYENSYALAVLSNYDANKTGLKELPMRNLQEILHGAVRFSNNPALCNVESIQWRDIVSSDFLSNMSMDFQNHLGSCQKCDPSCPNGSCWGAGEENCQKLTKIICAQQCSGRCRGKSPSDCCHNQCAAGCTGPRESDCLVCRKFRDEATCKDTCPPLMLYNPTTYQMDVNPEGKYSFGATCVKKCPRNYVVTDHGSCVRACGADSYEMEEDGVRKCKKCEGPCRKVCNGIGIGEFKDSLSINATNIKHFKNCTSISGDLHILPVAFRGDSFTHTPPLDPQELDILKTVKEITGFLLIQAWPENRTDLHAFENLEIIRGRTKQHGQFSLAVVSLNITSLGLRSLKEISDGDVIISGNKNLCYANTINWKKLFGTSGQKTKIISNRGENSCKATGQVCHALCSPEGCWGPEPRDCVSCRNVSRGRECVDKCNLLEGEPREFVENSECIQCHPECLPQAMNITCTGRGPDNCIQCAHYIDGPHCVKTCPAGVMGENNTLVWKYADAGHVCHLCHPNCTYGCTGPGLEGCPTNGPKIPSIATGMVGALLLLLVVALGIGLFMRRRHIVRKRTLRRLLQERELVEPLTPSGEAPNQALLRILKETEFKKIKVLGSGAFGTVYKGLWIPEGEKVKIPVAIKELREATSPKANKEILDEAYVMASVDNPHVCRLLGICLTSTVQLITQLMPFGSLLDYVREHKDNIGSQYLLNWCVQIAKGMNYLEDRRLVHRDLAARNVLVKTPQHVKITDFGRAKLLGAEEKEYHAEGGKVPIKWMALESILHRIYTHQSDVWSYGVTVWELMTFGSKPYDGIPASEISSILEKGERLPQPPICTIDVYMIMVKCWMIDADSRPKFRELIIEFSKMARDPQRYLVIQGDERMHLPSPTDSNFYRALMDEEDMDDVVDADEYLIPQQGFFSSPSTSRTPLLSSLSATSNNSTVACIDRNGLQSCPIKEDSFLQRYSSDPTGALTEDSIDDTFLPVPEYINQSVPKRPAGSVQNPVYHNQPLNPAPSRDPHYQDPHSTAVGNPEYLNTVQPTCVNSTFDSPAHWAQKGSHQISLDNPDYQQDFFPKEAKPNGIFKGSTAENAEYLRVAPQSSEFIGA
EGFR L858R/T790M/C797S, sequence (P00533 25-1210 T790M/C797S/L858R): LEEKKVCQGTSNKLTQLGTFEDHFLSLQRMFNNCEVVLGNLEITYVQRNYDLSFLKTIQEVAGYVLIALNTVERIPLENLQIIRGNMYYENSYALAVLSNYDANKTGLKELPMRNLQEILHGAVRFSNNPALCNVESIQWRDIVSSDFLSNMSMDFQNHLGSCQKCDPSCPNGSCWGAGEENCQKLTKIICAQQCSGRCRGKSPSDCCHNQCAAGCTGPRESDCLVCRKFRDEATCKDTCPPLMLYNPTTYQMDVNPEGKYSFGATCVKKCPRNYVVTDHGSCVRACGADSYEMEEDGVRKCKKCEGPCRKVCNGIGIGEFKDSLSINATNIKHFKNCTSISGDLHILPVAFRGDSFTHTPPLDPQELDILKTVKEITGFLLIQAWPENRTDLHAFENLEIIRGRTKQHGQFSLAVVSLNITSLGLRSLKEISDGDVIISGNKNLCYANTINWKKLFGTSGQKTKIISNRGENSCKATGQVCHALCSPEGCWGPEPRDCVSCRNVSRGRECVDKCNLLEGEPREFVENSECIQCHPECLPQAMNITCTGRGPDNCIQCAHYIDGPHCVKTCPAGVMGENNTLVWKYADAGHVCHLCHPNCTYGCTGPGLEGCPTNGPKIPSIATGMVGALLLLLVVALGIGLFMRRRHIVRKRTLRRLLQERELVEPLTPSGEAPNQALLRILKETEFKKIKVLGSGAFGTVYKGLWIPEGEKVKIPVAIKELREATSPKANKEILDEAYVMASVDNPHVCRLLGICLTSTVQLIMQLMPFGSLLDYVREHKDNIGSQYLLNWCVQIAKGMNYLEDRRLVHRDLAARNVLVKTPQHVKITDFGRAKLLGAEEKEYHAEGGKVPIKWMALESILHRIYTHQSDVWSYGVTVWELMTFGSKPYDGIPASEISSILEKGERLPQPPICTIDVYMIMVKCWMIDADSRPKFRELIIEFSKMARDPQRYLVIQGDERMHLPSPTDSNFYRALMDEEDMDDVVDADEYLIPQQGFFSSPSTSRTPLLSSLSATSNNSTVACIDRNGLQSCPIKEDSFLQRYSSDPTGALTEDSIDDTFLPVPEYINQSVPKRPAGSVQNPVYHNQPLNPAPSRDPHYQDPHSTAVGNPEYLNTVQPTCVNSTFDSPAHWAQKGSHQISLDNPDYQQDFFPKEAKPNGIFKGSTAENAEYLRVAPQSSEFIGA
EGFR wildtype (WT), sequence (P00533 25-1210): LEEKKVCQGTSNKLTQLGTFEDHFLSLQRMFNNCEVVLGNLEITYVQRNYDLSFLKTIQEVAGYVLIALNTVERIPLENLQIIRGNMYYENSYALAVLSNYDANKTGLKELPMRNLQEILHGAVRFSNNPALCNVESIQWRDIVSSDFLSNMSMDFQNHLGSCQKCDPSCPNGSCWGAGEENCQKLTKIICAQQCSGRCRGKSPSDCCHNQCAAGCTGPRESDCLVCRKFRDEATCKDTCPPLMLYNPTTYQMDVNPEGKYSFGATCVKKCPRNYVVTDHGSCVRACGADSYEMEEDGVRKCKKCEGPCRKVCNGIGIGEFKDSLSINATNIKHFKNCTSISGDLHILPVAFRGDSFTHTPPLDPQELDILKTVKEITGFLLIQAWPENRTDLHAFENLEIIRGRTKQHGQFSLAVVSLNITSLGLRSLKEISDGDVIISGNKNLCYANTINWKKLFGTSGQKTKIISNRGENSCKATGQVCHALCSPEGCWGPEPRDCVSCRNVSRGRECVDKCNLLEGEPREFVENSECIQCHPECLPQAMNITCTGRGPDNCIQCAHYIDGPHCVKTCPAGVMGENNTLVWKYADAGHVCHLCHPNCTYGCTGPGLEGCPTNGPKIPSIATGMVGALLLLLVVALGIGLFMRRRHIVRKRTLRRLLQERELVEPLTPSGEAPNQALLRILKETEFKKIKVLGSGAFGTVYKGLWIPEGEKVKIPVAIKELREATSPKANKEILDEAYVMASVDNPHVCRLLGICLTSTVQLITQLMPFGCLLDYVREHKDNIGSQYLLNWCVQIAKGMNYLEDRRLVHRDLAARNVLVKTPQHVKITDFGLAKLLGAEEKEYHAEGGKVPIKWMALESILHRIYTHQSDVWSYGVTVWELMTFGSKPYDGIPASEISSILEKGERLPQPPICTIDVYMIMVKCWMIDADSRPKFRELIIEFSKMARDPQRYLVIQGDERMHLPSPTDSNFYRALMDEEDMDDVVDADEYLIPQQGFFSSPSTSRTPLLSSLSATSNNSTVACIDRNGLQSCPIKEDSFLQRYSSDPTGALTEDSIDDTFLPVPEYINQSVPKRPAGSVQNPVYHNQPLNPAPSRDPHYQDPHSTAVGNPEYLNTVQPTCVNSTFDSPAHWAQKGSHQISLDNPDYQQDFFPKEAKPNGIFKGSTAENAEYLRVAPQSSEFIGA

For `CN(C)CC1(F)CCN(c2cc(Nc3ccnc(-c4cnn(S(=O)(=O)C5CC5)c4)n3)ncc2C#Cc2cnn(C3CC3)c2)CC1` [Example 300, N-(5-((1-Cyclopropyl-1H-pyrazol-4-yl)ethynyl)-4-(4-((dimethylamino)methyl)-4-fluoropiperidin-1-yl)pyridin-2-yl)-2-(1-(cyclopropylsulfonyl)-1H-pyrazol-4-yl)pyrimidin-4-amine], the IC50 on EGFR Del19/T790M/C797S (setting [1]) amounted to 0.9 nM; at EGFR Del19/T790M/C797S (setting [2]), 0.9 nM; on EGFR L858R/T790M/C797S (setting [3]) it was 1.1 nM; on EGFR L858R/T790M/C797S (setting [4]), 1.5 nM; on EGFR Del19/C797S (setting [5]), 3.3 nM; at EGFR Del19/C797S (setting [6]), 10.3 nM. Also, the IC50 on EGFR L858R/C797S (setting [7]) is 13.5 nM; against EGFR L858R/C797S (setting [8]), 288 nM; on EGFR wildtype (WT) (setting [9]), 26.8 nM; against EGFR wildtype (WT) (IC50 WT (nM), 100 μM ATP) it was above 10000 nM.
Take `CN(C)CC1(O)CCN(c2cc(Nc3ccnc(-c4cnn(S(=O)(=O)C5CC5)c4)n3)ncc2C#Cc2cnn(C(F)(F)F)c2)CC1` [Example 317, 1-(2-((2-(1-(Cyclopropylsulfonyl)-1H-pyrazol-4-yl)pyrimidin-4-yl)amino)-5-((1-(trifluoromethyl)-1H-pyrazol-4-yl)ethynyl)pyridin-4-yl)-4-((dimethylamino)methyl)piperidin-4-ol]: the IC50 at EGFR Del19/T790M/C797S (setting [2]) is 16.2 nM; on EGFR L858R/T790M/C797S (setting [4]) it was 35.1 nM; at EGFR Del19/C797S (setting [6]) it was 245 nM; on EGFR L858R/C797S (setting [8]), 334 nM; at EGFR wildtype (WT) (IC50 WT (nM), 100 μM ATP), above 10000 nM.
Consider `CC(C)(C#Cc1cnc(Nc2ccnc(-c3cnn(S(=O)(=O)C4CC4)c3)n2)cc1N[C@H]1CC[C@@H](O)CC1)N1CCOCC1` [Example 230, (1s,4s)-4-((2-((2-(1-(Cyclopropylsulfonyl)-1H-pyrazol-4-yl)pyrimidin-4-yl)amino)-5-(3-methyl-3-morpholinobut-1-yn-1-yl)pyridin-4-yl)amino)cyclohexan-1-ol], for which the IC50 on EGFR Del19/T790M/C797S (setting [2]) is 5.9 nM; against EGFR L858R/T790M/C797S (setting [4]), 18.2 nM; on EGFR Del19/C797S (setting [6]) it was 1720 nM; on EGFR L858R/C797S (setting [8]), 813 nM; on EGFR wildtype (WT) (IC50 WT (nM), 100 μM ATP), above 10000 nM.
Turning to `C[C@]1(O)CC[C@@H](Nc2cc(Nc3ccnc(-c4cnn(S(=O)(=O)C5CC5)c4)n3)ncc2C#Cc2cnn(CC(F)F)c2)CC1` [Example 323, (1s,4s)-4-((2-((2-(1-(Cyclopropylsulfonyl)-1H-pyrazol-4-yl)pyrimidin-4-yl)amino)-5-((1-(2,2-difluoroethyl)-1H-pyrazol-4-yl)ethynyl)pyridin-4-yl)amino)-1-methylcyclohexan-1-ol], the IC50 at EGFR Del19/T790M/C797S (setting [1]) came out at 0.3 nM; on EGFR Del19/T790M/C797S (setting [2]) it was 0.6 nM; at EGFR L858R/T790M/C797S (setting [3]), 0.2 nM; on EGFR L858R/T790M/C797S (setting [4]), 0.8 nM; at EGFR Del19/C797S (setting [5]), 4.5 nM; against EGFR Del19/C797S (setting [6]), 7.4 nM. Besides, the IC50 was 14.3 nM on EGFR L858R/C797S (setting [7]); 184 nM at EGFR L858R/C797S (setting [8]); 146 nM at EGFR wildtype (WT) (setting [9]); above 10000 nM against EGFR wildtype (WT) (IC50 WT (nM), 100 μM ATP).
As to `CN(C)Cc1ccc(CNc2cc(Nc3ccnc(-c4cnn(S(=O)(=O)C5CC5)c4)n3)ncc2C#Cc2cnn(CCF)c2)cc1` [Example 51, N^2-(2-(1-(Cyclopropylsulfonyl)-1H-pyrazol-4-yl)pyrimidin-4-yl)-N^4-(4-((dimethylamino)methyl)benzyl)-5-((1-(2-fluoroethyl)-1H-pyrazol-4-yl)ethynyl)pyridine-2,4-diamine], the IC50 on EGFR Del19/T790M/C797S (Km ATP, read-out: IC50 Del19/T790M/C797S (nM) Km ATP) amounted to 0.9 nM; on EGFR L858R/T790M/C797S (Km ATP, read-out: IC50 L858R/T790M/C797S (nM) Km ATP) it was 3.2 nM; on EGFR Del19/C797S (Km ATP, read-out: IC50 Del19/C797S (nM) Km ATP) it was 68.6 nM; on EGFR L858R/C797S (Km ATP, read-out: IC50 L858R/C797S (nM) Km ATP), 49.1 nM; on EGFR wildtype (WT) (Km ATP, read-out: IC50 WT (nM) Km ATP) it was 262 nM.
As to `O=S(=O)(C1CC1)N1CCC(C#Cc2cnc(Nc3ccnc(-c4cnn(S(=O)(=O)C5CC5)c4)n3)cc2NC2CCC(O)CC2)C1` (stereo not drawn) [Example 394, (1s,4s)-4-((2-((2-(1-(Cyclopropylsulfonyl)-1H-pyrazol-4-yl)pyrimidin-4-yl)amino)-5-((1-(cyclopropylsulfonyl)pyrrolidin-3-yl)ethynyl)pyridin-4-yl)amino)cyclohexan-1-ol], the IC50 against EGFR Del19/T790M/C797S (setting [2]) turned out to be 0.6 nM; at EGFR Del19/T790M/C797S (Km ATP, read-out: IC50 Del19/T790M/C797S (nM), Km ATP), 0.5 nM; against EGFR L858R/T790M/C797S (setting [4]), 1.5 nM; at EGFR L858R/T790M/C797S (Km ATP, read-out: IC50 L858R/T790M/C797S (nM), Km ATP) it was 0.2 nM; on EGFR Del19/C797S (setting [6]), 12.3 nM; at EGFR Del19/C797S (Km ATP, read-out: IC50 Del19/C797S (nM), Km ATP), 7.5 nM. Also, the IC50 is 52.5 nM against EGFR L858R/C797S (setting [8]); 4.3 nM on EGFR L858R/C797S (Km ATP, read-out: IC50 L858R/C797S (nM), Km ATP); above 10000 nM on EGFR wildtype (WT) (IC50 WT (nM), 100 μM ATP); 15.7 nM on EGFR wildtype (WT) (Km ATP, read-out: IC50 WT (nM), Km ATP).
